Data taken from patent US20240285670A1, “THERAPEUTIC TREATMENT OF TUMORS BY BLOCKING THE HEME SYNTHESIS-EXPORT AXIS” (Università degli Studi di Torino, priority 2021, published 2024).

Tests used:
BTECs = assay: Heme content in BTECs; type: cell-based, human; details: FLVCR1a knockdown vs scramble shRNA BTECs
Excerpt: (A) Frequency (%) of patient tumors with overexpression of FLVCR1 compared to their matched normal tissues across multiple cancer types. The number of patients showing tumor FLVCR1 overexpression relative to the total number of patients examined are indicated in the plot. Data derive from the BioXpress (Wan et al., 2015). […] Transcript abundance, normalized to beta-actin mRNA expression (for SHSY-5Y cells) or to 18s mRNA (for BTECs), is expressed as a fold increase over a calibrator sample. Data represent mean±SEM, n=4. For statistical analyses, an unpaired Student's t-test was used; ***p<0.001. (C, E) Western blot analysis of FLVCR1a expression in SHSY-5Y cells (C) and BTECs (E). […] Band intensities were measured by densitometry and normalized to vinculin expression. […] Values are expressed as pmol heme/mg protein. […] Values are expressed as pmol heme/mg protein. […]
Intracellular heme concentration was measured using a fluorescence assay, as previously reported (Sinclair et al., 2001). […] Fluorescence (wavelength: excitation 405 nm-emission 660-720 nm) of the resultant protoporphyrin was assessed on a Glomax Multi Detection System (Promega Corporation, Madison WI, USA).
The endogenous protoporphyrin content (measured in parallel unheated samples in oxalic acid) was subtracted. […] Results were expressed as relative fluorescence intensity or, alternatively, as pmol of heme/mg total protein.

ALAS1 = assay: qRT-PCR analysis of ALAS1 expression in C80 cells; type: cell-based, human; details: FLVCR1a-silenced vs scramble shRNA C80 cells
Description: (A) Heme content in Caco2 cells treated with 5 mM 5-ALA (black bars and white bars) or with 5 mM 5-ALA+0.5 mM SA (light grey outlined bars) for the indicated time points. […] Values are expressed as relative fluorescence intensity. Data represent mean±SEM, n=2. For statistical analyses, a two-way analysis of variance was used, followed by the Bonferroni correction for multiple group comparisons; **=p<0.01, ***=p<0.001. 5-ALA, 5-aminolevulinic acid; SA, succinylacetone. (B) Intracellular 5-ALA levels. […] Values are expressed as peak area/μg proteins. Data represent mean±SEM of n=4 wells pooled from two independent experiments. For statistical analyses, an unpaired Student's t-test was used; **=p<0.01. 5-ALA, 5-aminolevulinic acid. (C, D) Accumulation of ^13C2-5-ALA in cells incubated with U-^13C-glucose (C) or of ^13C3-5-ALA in cells incubated with U-^13C-glutamine (D) for the indicated time. […] Values are expressed as peak area/μg proteins. […] Transcript abundance, normalized to beta-actin mRNA expression, is expressed as a fold increase over a calibrator sample. […] Band intensities were measured by densitometry and normalized to vinculin expression. […]
RNA extraction and quantitative real-time PCR analyses were performed as described previously (Destefanis et al., 2019). […] Quantitative real-time PCR (qRT-PCR) was performed using the Universal Probe Library system (Roche, Basel, CH). […]

## FLVCR1a shRNA: shRNA specifically down-regulating FLVCR1a without targeting FLVCR1b; pLKO.1 lentiviral clone TRCN0000059599, antisense SEQ ID No.: 2 (antisense TTGCTAATGATGCTGTACTGG; sense CCAGTACAGCATCATTAGCAA)
BTECs
  heme levels at the steady state: increased heme levels
ALAS1
  ALAS1 expression (qRT-PCR): reduced ALAS1 expression
